Measurements from patent US20240025893A1, “PYRIMIDINE-AND NITROGEN-CONTAINING BICYCLIC COMPOUND” (Asahi Kasei Pharma Corporation, priority 2020, published 2024).

Assays:
human IRAK-4 = human IRAK-4 (Homo sapiens (Human), UniProt Q9NWZ3); assay: Measurement of human IRAK-4 inhibitory activity (TR-FRET, peptide substrate phosphorylation, 10 μM ATP); type: biochemical; details: 1 nM IRAK-4, 10 μM ATP, 23° C., 30 minutes; average values
Outline: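 With 1 nM IRAK-4, 0.5 μM biotinylated peptide and 10 μM ATP, compound incubated 30 min at 23 °C in 50 mM HEPES pH 7.2 with Mg2+/Mn2+. Stopped with EDTA plus europium-cryptate anti-phosphopeptide antibody and streptavidin-XL665, 60 min at 23 °C. Activity taken as the 665/620 nm TR-FRET ratio.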

[1] = tested on: LPS-stimulated TNFα production in THP-1 cells; assay: LPS-stimulated TNFα production inhibition test using human acute monocytic leukemia cell strain THP-1; type: cell-based; details: LPS 2.5 ng/mL, average values
Outline: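 THP-1 cells were preincubated with compound for 1 h at 37 °C, then stimulated with LPS (2.5 ng/mL final) for 4 h. Supernatant TNFα was quantified by HTRF (620/665 nm ratio) against a calibration curve. IC50 came from a 4-parameter logistic fit, with no-LPS set as 100% and no-compound as 0% suppression.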

Chain of human IRAK-4 (Q9NWZ3 whole entry): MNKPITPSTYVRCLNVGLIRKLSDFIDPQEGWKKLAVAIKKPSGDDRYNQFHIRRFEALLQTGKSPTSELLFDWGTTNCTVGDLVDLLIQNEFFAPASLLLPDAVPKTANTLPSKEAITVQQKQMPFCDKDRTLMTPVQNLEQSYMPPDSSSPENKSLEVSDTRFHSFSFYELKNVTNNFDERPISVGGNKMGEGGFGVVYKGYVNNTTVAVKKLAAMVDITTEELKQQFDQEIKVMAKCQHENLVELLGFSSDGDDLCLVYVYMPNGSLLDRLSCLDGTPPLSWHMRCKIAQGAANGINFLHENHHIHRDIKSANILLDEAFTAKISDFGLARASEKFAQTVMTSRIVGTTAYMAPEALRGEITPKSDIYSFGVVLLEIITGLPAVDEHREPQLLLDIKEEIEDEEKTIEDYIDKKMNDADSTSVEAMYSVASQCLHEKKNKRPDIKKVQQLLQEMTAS

Row | SMILES | IC50 (human IRAK-4) | IC50 ([1]; Homo sapiens, THP-1, 4 h) | IC50 ([1]; 4 hours)
1 | CC(C)(C)O[C@H]1C[C@@H](C(=O)Nc2nc3ccc(-c4cnc(CO[C@H]5CCC[C@@H]5O)nc4)cc3s2)C1 [d-02-01, (1s,3s)-3-(tert-Butoxy)-N-(6-(2-((((1S,2S)-2-hydroxycyclopentyl)oxy)methyl)pyrimidin-5-yl)benzo[d]thiazol-2-yl)cyclobutane-1-carboxamide] | 1.83 nM | 77 nM | 
2 | O=C(Nc1cc2cc(-c3cnc(CO[C@H]4CCC[C@@H]4O)nc3)ccn2n1)[C@@H]1C[C@H]1F [e-01-02] | 2.48 nM | 225 nM | 
3 | C[C@@H]1C[C@H]1C(=O)Nc1cc2cc(-c3cnc(CO[C@H]4CCC[C@@H]4O)nc3)ccn2n1 [e-01-03] | 1.03 nM | 171 nM | 
4 | Cc1cc(C(=O)N2CCN([C@H]3C[C@@H](C(=O)Nc4cc5cc(-c6cnc(CO[C@H]7CCC[C@@H]7O)nc6)ccn5n4)C3)[C@@H](C)C2)ccn1 [e-02-01, (1R,3s)-N-(5-(2-((((1S,2S)-2-Hydroxycyclopentyl)oxy)methyl)pyrimidin-5-yl)pyrazolo[1,5-a]pyridin-2-yl)-3-((S)-2-methyl-4-(2-methylisonicotinoyl)piperazin-1-yl)cyclobutane-1-carboxamide] | 1.43 nM | 77 nM | 
5 | C[C@H]1CN(C(=O)c2cccnc2)CCN1[C@H]1C[C@@H](C(=O)Nc2cc3cc(-c4cnc(CO[C@H]5CCC[C@@H]5O)nc4)ccn3n2)C1 [e-02-02] | 1.38 nM | 123 nM | 
6 | C[C@H]1CN(C(=O)c2ccc(C(F)(F)F)nc2)CCN1[C@H]1C[C@@H](C(=O)Nc2cc3cc(-c4cnc(CO[C@H]5CCC[C@@H]5O)nc4)ccn3n2)C1 [e-02-03] | 2.23 nM | 67 nM | 
7 | C[C@H]1CN(CC(F)(F)F)CCN1[C@H]1C[C@@H](C(=O)Nc2cc3cc(-c4cnc(CO[C@H]5CCC[C@@H]5O)nc4)ccn3n2)C1 [e-02-04] | 1.05 nM | 116 nM | 
8 | CCC(=O)N1CCN([C@H]2C[C@@H](C(=O)Nc3cc4cc(-c5cnc(CO[C@H]6CCC[C@@H]6O)nc5)ccn4n3)C2)[C@@H](C)C1 [e-02-05] | 1.14 nM | 123 nM | 
9 | C[C@H]1CN(C(=O)C2CCC2)CCN1[C@H]1C[C@@H](C(=O)Nc2cc3cc(-c4cnc(CO[C@H]5CCC[C@@H]5O)nc4)ccn3n2)C1 [e-02-06] | 1.3 nM | 113 nM | 
10 | CC(C)C(=O)N1CCN([C@H]2C[C@@H](C(=O)Nc3cc4cc(-c5cnc(CO[C@H]6CCC[C@@H]6O)nc5)ccn4n3)C2)[C@@H](C)C1 [e-02-07] | 1.33 nM | 152 nM | 
11 | CC(=O)N1CCN([C@H]2C[C@@H](C(=O)Nc3cc4cc(-c5cnc(CO[C@H]6CCC[C@@H]6O)nc5)ccn4n3)C2)[C@@H](C)C1 [e-02-08] | 1.32 nM | 165 nM | 
12 | C[C@H]1CN(C(=O)c2ccccc2)CCN1[C@H]1C[C@@H](C(=O)Nc2cc3cc(-c4cnc(CO[C@H]5CCC[C@@H]5O)nc4)ccn3n2)C1 [e-02-09] | 1.09 nM | 65 nM | 
13 | C[C@H]1CN(C(=O)C2CC2)CCN1[C@H]1C[C@@H](C(=O)Nc2cc3cc(-c4cnc(CO[C@H]5CCC[C@@H]5O)nc4)ccn3n2)C1 [e-02-10] | 1.09 nM | 131 nM | 
14 | CC(C)[C@H]1COCCN1[C@H]1C[C@@H](C(=O)Nc2cc3cc(-c4cnc(CO[C@H]5CCC[C@@H]5O)nc4)ccn3n2)C1 [e-02-11] | 1.04 nM | 95 nM | 
15 | C[C@H]1CN(C(=O)c2cccnc2)CCN1[C@H]1C[C@@H](C(=O)Nc2cc3cc(-c4cnc(CO[C@H]5CCC[C@@H]5O)nc4)ccn3n2)C1 [e-02-12] | 1.9 nM |  | 129 nM
16 | CCCOCc1ncc(-c2ccn3nc(NC(=O)[C@H]4C[C@@H](N5CCN(C(=O)c6ccnc(C)c6)C[C@@H]5C)C4)cc3c2)cn1 [e-02-14] | 1.64 nM | 139 nM | 
17 | CCCOCc1ncc(-c2ccn3nc(NC(=O)[C@H]4C[C@@H](N5CCN(C(=O)C6CCOC6)C[C@@H]5CC)C4)cc3c2)cn1 (some centres unmarked) [e-02-15] | 1.81 nM | 167 nM | 
18 | CCCOCc1ncc(-c2ccn3nc(NC(=O)[C@H]4C[C@@H](N5CCN(C(=O)c6ccc(C(F)(F)F)cn6)C[C@@H]5C)C4)cc3c2)cn1 [e-02-16] | 1.85 nM | 175 nM | 
19 | CCCOCc1ncc(-c2ccn3nc(NC(=O)[C@H]4C[C@@H](N5CCN(C(=O)c6ccnc(C(F)(F)F)c6)C[C@@H]5C)C4)cc3c2)cn1 [e-02-17] | 1.36 nM | 200 nM | 
20 | CCCOCc1ncc(-c2ccn3nc(NC(=O)[C@H]4C[C@@H](N5CCN(C(=O)c6cccc(C)n6)C[C@@H]5C)C4)cc3c2)cn1 [e-02-18] | 1.84 nM | 200 nM | 
21 | CCCOCc1ncc(-c2ccn3nc(NC(=O)[C@H]4C[C@@H](N5CCN(C(=O)C6CCOCC6)C[C@@H]5CC)C4)cc3c2)cn1 [e-02-19] | 1.19 nM | 191 nM | 
22 | CCCOCc1ncc(-c2ccn3nc(NC(=O)[C@H]4C[C@@H](N5CCN(C(=O)N(C)C)C[C@@H]5C)C4)cc3c2)cn1 [e-02-20] | 2.22 nM | 244 nM | 
23 | CCCOCc1ncc(-c2ccn3nc(NC(=O)[C@H]4C[C@@H](N5CCN(C(=O)c6coc(C)n6)C[C@@H]5C)C4)cc3c2)cn1 [e-02-21] | 1.73 nM | 188 nM | 
24 | CCCOCc1ncc(-c2ccn3nc(NC(=O)[C@H]4C[C@@H](N5CCN(C(=O)c6ccc(Cl)cn6)C[C@@H]5C)C4)cc3c2)cn1 [e-02-22] | 1.29 nM | 106 nM | 
25 | CCCOCc1ncc(-c2ccn3nc(NC(=O)[C@H]4C[C@@H](N5CCN(C(=O)c6cc(C)nc(C)c6)C[C@@H]5C)C4)cc3c2)cn1 [e-02-23] | 0.88 nM | 111 nM | 
26 | Cc1nc(C(=O)N2CCN([C@H]3C[C@@H](C(=O)Nc4cc5cc(-c6cnc(CO[C@H]7CCC[C@@H]7O)nc6)ccn5n4)C3)[C@@H](C)C2)co1 [e-02-24] | 1.27 nM | 117 nM | 
27 | C[C@H]1CN(C(=O)c2ccc(Cl)cn2)CCN1[C@H]1C[C@@H](C(=O)Nc2cc3cc(-c4cnc(CO[C@H]5CCC[C@@H]5O)nc4)ccn3n2)C1 [e-02-25] | 1.58 nM | 53 nM | 
28 | C[C@H]1CN(C(=O)c2ccon2)CCN1[C@H]1C[C@@H](C(=O)Nc2cc3cc(-c4cnc(CO[C@H]5CCC[C@@H]5O)nc4)ccn3n2)C1 [e-02-26] | 1.86 nM | 80 nM | 

Other lines, results leading:

Row | IC50 (human IRAK-4) | IC50 ([1]; Homo sapiens, THP-1, 4 h) | IC50 ([1]; 4 hours) | SMILES
29 | 1.75 nM | 184 nM |  | O=C(Nc1nc2ccc(-c3cnc(CO[C@H]4CCC[C@@H]4O)nc3)cc2s1)C1CC2(COC2)C1 [d-01-07]
30 | 2.89 nM | 202 nM |  | C[C@]1(F)C[C@H](C(=O)Nc2nc3ccc(-c4cnc(CO[C@H]5CCC[C@@H]5O)nc4)cc3s2)C1 [d-01-08]
31 | 1.38 nM | 67 nM |  | CC(=O)N1CCC2(CC1)CC(C(=O)Nc1nc3ccc(-c4cnc(CO[C@H]5CCC[C@@H]5O)nc4)cc3s1)C2 [d-03-01, 7-Acetyl-N-(6-(2-((((1S,2S)-2-hydroxycyclopentyl)oxy)methyl)pyrimidin-5-yl)benzo[d]thiazol-2-yl)-7-azaspiro[3,5]nonane-2-carboxamide]
32 | 2.52 nM | 93 nM |  | CC(C)C(=O)N1CCC2(CC1)CC(C(=O)Nc1nc3ccc(-c4cnc(CO[C@H]5CCC[C@@H]5O)nc4)cc3s1)C2 [d-03-05]
33 | 0.849 nM | 125 nM |  | O=C(Nc1nc2ccc(-c3cnc(CO[C@H]4CCC[C@@H]4O)nc3)cc2s1)C1CC2(CCN(C(=O)c3ccccn3)CC2)C1 [d-03-06]
34 | 0.852 nM | 139 nM |  | O=C(Nc1nc2ccc(-c3cnc(CO[C@H]4CCC[C@@H]4O)nc3)cc2s1)C1CC2(CCN(C(=O)c3cccnc3)CC2)C1 [d-03-07]
35 | 1.28 nM | 137 nM |  | O=C(Nc1nc2ccc(-c3cnc(CO[C@H]4CCC[C@@H]4O)nc3)cc2s1)C1CC2(CCN(CC(F)(F)F)CC2)C1 [d-03-08]
36 | 1.47 nM | 158 nM |  | O=C(Nc1nc2ccc(-c3cnc(CO[C@H]4CCC[C@@H]4O)nc3)cc2s1)C1CC2(CCN(C(=O)C3COC3)CC2)C1 [d-03-09]
37 | 2.1 nM | 182 nM |  | CCO[C@H]1C[C@@H](C(=O)Nc2nc3ccc(-c4cnc(CO[C@H]5CCC[C@@H]5O)nc4)cc3s2)C1 [d-04-01, (1s,3s)-3-Ethoxy-N-(6-(2-((((1S,2S)-2-hydroxycyclopentyl)oxy)methyl)pyrimidin-5-yl)benzo[d]thiazol-2-yl)cyclobutane-1-carboxamide]
38 | 2.48 nM | 207 nM |  | COCCO[C@H]1C[C@@H](C(=O)Nc2nc3ccc(-c4cnc(CO[C@H]5CCC[C@@H]5O)nc4)cc3s2)C1 [d-04-02]
39 | 2.22 nM | 162 nM |  | CCCO[C@H]1C[C@@H](C(=O)Nc2nc3ccc(-c4cnc(CO[C@H]5CCC[C@@H]5O)nc4)cc3s2)C1 [d-04-03]
40 | 2.05 nM | 145 nM |  | O=C(Nc1nc2ccc(-c3cnc(CO[C@H]4CCC[C@@H]4O)nc3)cc2s1)[C@H]1C[C@@H](OCc2ccncc2)C1 [d-04-05]
41 | 1.51 nM | 182 nM |  | CN(C)CC1CC(C(=O)Nc2nc3ccc(-c4cnc(CO[C@H]5CCC[C@@H]5O)nc4)cc3s2)C1 (stereo partly drawn) [d-05-01, 3-((Dimethylamino)methyl)-N-(6-(2-((((1S,2S)-2-hydroxycyclopentyl)oxy)methyl)pyrimidin-5-yl)benzo[d]thiazol-2-yl)cyclobutane-1-carboxamide]
42 | 2.1 nM | 223 nM |  | O=C(Nc1nc2ccc(-c3cnc(CO[C@H]4CCC[C@@H]4O)nc3)cc2s1)C1CC(CN2CC(F)C2)C1 (stereo partly drawn) [d-05-02]
43 | 2.89 nM | 279 nM |  | O=C(Nc1cc2cc(-c3cnc(CO[C@H]4CCC[C@@H]4O)nc3)ccn2n1)C1CC1 [e-01-01, N-(5-(2-((((1S,2S)-2-hydroxycyclopentyl)oxy)methyl)pyrimidin-5-yl)pyrazolo[1,5-a]pyridin-2-yl)cyclopropanecarboxamide]
